We go through 13 compounds from patent US4485117A, “Antiprotozoal compounds” (priority 1981, dated 1984).

Converted amounts (≈) assume the structure as drawn. Like-named read-outs stand apart in the source and are kept apart here.

One data set concerns Plasmodium falciparum. As to the kind of experiment: Inhibitory effect on Plasmodium falciparum in culture (G-3H-hypoxanthine uptake). Type of data set: cell-based. The settings on record: for IC50: P. falciparum culture, 36 hours, read-out: ED50 (the source's name). The procedure:
Compounds of the following formula, including compounds of formula (I), were examined for their inhibitory effect on Plasmodium falciparum. [drawing 11]
The test method was a modification of that described by Desjardins et al., Antimicrob. Agents and Chemotherapy,1979,16,710-718. Compounds were dissolved in ethanol at a concentration of 1000 mg/L and dilutions down to 1 mg/L were made. The drug solutions were serially diluted using RPMI 1640 medium+10% human plasma in microtitration plates. Parasitised and fresh red blood cells were added together with G^3 H-hypoxanthine, in RPMI 1640 medium+10% human plasma and the cultures incubated for 36 hours. Cultures were then harvested, the particulate contents collected on a glass-fibre filter paper and washed copiously with water. The filter papers were dried and the radioactivity measured using a scintillation counter. Infected untreated and uninfected untreated cultures were included as controls. Percent inhibition was correlated with dose to provide an ED50.

The next data set relates to E. tenella. The data set is described as follows: In vitro activity against E. tenella in cell cultures. Format: cell-based. The settings on record: Eimeria tenella, 96 hours, read-out: MIC (minimum inhibitory concentration). The procedure: Compounds tested in Example 5 were assessed for their activity against E. tenella. In the method employed cell cultures were infected with sporozoite suspensions of E. tenella immediately after addition of the compounds. […] After incubation for 96 hours the cultures were fixed and the cells were stained with 0.1% toluidine blue. The stained cultures were examined microscopically for presence of parasites.

Another data set has as its target cyclo oxygenase. As to the kind of experiment: Enzyme assay, inhibition of cyclo oxygenase. The settings on record: in vitro. Type of data set: biochemical, rabbit.
A further data set concerns the target lipoxygenase. As to the kind of experiment: Enzyme assay, inhibition of lipoxygenase. Type of data set: biochemical, rabbit. The settings on record: in vitro.
The next data set concerns Eimeria tenella. As to the kind of experiment: In vivo anticoccidiosis screen in chicks, E. tenella. The settings on record: 6 days, fifth day of infection, groups of 5. On the set-up: species or system Eimeria tenella; male Ross Ranger chicks. The procedure: (§1) Compounds tested in Example 7(a) were examined in an in vivo anticoccidiosis screen.
(§2) The compounds were administered to groups of 5 male Ross Ranger chicks (7 days old), at various dosages in the diet, for 6 days. The chicks were each infected with Eimeria tenella and E. acervulina one day after the beginning of the medication. The number of birds cleared of E. tenella lesions was noted on the fifth day of infection as was the presence or absence of E. acervulina oocysts in the droppings. The results are shown in Table 3, in which the numbers refer to the number of birds cleared of E. tenella and the letters indicate the presence or absence of E. acervulina /A=absent; P=present; M=95% clearance in comparision with untreated controls/.

For the next data set, the system named is E. acervulina. As to the kind of experiment: In vivo anticoccidiosis screen in chicks, E. acervulina. On the set-up: species or system Eimeria acervulina; male Ross Ranger chicks; key: A: absent; P: present; M: 95% clearance in comparision with untreated controls. The settings on record: 6 days, fifth day of infection. The procedure:
as §1, §2

In another data set the test system is malaria. The settings on record: background art; cited from earlier work.
The nature of the next data set: in vivo. The settings on record: rat, rats, oral, read-out: acute oral LD50. The procedure:
The acute oral LD50 's of compounds of formula (I) in rats were determined by standard techniques.

Another data set deals with rat eye. As to the kind of experiment: Anti-inflammatory activity in the rat eye (bacterial endotoxin induced). The settings on record: assessed at 24 and 48 hours. Type of data set: in vivo. The procedure:
The anti-inflammatory activity in the rat eye was determined, following both oral and topical administration, of 2-(4-t-butylcyclohexyl)-3-hydroxy-1,4-naphthoquinone. The inflammatory response for the test employed developed following injection of gram-negative bacterial endotoxin into the rat foodpad (Rosenbaum et. al Nature 286, 611-613 (1980)).
Vasodilation was assessed at 24 and 48 hours using a slit lamp, the rats then killed and the aqueous humour aspirated for determination of protein concentrations and total leucocyte numbers. The results are shown below as ED50.

Turning to `C[C@H]1CC[C@H](C2=C(O)C(=O)c3ccccc3C2=O)CC1` [4'-Methyl (100% trans), reference compound], the IC50 in the data set with Plasmodium falciparum (Plasmodium falciparum, 36 h) came out at 9.2 nM. The MIC in the data set on E. tenella turned out to be 0.46 µM (≈ 0.124 µg/mL).

On to `CCC(C)(C)C1CCC(C2=C(O)C(=O)c3ccccc3C2=O)CC1` (stereo not drawn) [4'-t-Pentyl (50% trans), 2-hydroxy-3-(4'-t-pentylcyclohexyl)-1,4-naphthoquinone], for which the MIC with E. tenella was determined as 0.0096 µM (≈ 0.00313 µg/mL).

Regarding `CC(C)(C)[C@H]1CC[C@H](C2=C(O)C(=O)c3ccccc3C2=O)CC1` [4'-t-Butyl (100% trans), 2-(trans-4'-t-butylcyclohexyl)-3-hydroxy-1,4-naphthoquinone], the IC50 in the data set with Plasmodium falciparum (Plasmodium falciparum, 36 h) is 0.0571 nM.

As for `CC(C)(C)[C@H]1CC[C@@H](C2=C(O)C(=O)c3ccccc3C2=O)CC1` [4'-t-Butyl (100% cis), 2-(cis-4'-t-butylcyclohexyl)-3-hydroxy-1,4-naphthoquinone], the IC50 in the data set on Plasmodium falciparum (Plasmodium falciparum, 36 h) was 1.08 nM. Besides, in the data set on E. tenella, the MIC was found to be 0.025 µM (≈ 0.00781 µg/mL).

Turning to `CCC(C)(C)C1CCC(C2=C(O)C(=O)c3ccccc3C2=O)CC1` (stereo not shown) [2-hydroxy-3-(4'-t-pentylcyclohexyl)-1,4-naphthoquinone], the IC50 against cyclo oxygenase came out at 63000 nM; against lipoxygenase it was 29000 nM.

With `O=C1C(O)=C([C@H]2CC[C@H](C3CCCCC3)CC2)C(=O)c2ccccc21` [4'-Cyclohexyl (100% trans), reference compound], the IC50 in the data set on Plasmodium falciparum (Plasmodium falciparum, 36 h) is 4.05 nM. In the data set with E. tenella, the MIC came out at 0.092 µM (≈ 0.0311 µg/mL). For the same compound, the “number of birds cleared of E. tenella lesions” value (“number” for short) with Eimeria tenella (50 ppm in diet) is reported as 1/5; in the data set with Eimeria tenella (100 ppm in diet), 5/5; with Eimeria tenella (200 ppm in diet) it was 5/5. Also, the “presence or absence of E. acervulina oocysts in the droppings” value (“presence or absence” for short) was “P” in the data set with E. acervulina (50 ppm in diet), “P” in the data set with E. acervulina (100 ppm in diet) and “A” in the data set on E. acervulina (200 ppm in diet).

As for `CC(C)(C)C1CCC(C2=C(O)C(=O)c3ccccc3C2=O)CC1` (stereo not drawn) [4'-t-Butyl (75% trans), 2-(4'-t-butylcyclohexyl)-3-hydroxy-1,4-naphthoquinone], the IC50 in the data set on Plasmodium falciparum (2160 min) worked out at 0.0563 nM.

Turning to `O=C1C(O)=C(CCCCCCCCC2CCCCC2)C(=O)c2ccccc21` [Menoctone, 2-(8-cyclohexyloctyl)-3-hydroxy-1,4-naphthoquinone, reference compound], the ED50 (in general, the midpoint of the dose-response relation) with Plasmodium falciparum (36 h) is on record as 2.55×10^-7. In the data set on malaria, the “activity in man (in words)” value is listed as “poor activity in man”.

For the compound `CC(C)(C)C1CCC(C2=C(O)C(=O)c3ccccc3C2=O)CC1` (stereo not drawn) [4'-t-Butyl (50% trans), 2-(4'-t-butylcyclohexyl)-3-hydroxy-1,4-naphthoquinone], the IC50 in the data set with Plasmodium falciparum (2160 min) turned out to be 0.599 nM.

For `CC(C)(C)C1CCC(C2=C(O)C(=O)c3ccccc3C2=O)CC1` (stereo not shown) [2-(4'-t-butylcyclohexyl)-3-hydroxy-1,4-naphthoquinone], the LD50 (commonly the dose at which mortality reaches 50%) in “in vivo” was more than 1000 mg/kg. The IC50 turned out to be 58000 nM on cyclo oxygenase and 23000 nM against lipoxygenase. This compound came in with an ED50 in the data set on rat eye (Rattus norvegicus, oral) of 5 to 25 mg/kg. For the same compound, the “ED50, anti-inflammatory activity in the rat eye” value in the data set with rat eye (topical) is 10-20 ug/eye.

In the case of `CC(C)(C)C1CCCC(C2=C(O)C(=O)c3ccccc3C2=O)C1` (stereo not drawn) [3'-t-Butyl (80% trans), reference compound], in the data set with Plasmodium falciparum (Plasmodium falciparum, 36 h), the IC50 is 300 nM. Also, in the data set on E. tenella, the MIC stood at 4 µM (≈ 1.25 µg/mL).

Take `CC(C)(C)C1CCC(C2=C(O)C(=O)c3ccccc3C2=O)CC1` (stereo not drawn) [4'-t-Butyl (80% trans), 2-(4'-t-butylcyclohexyl)-3-hydroxy-1,4-naphthoquinone]: the IC50 with Plasmodium falciparum (2160 min) was determined as 0.0375 nM. The MIC in the data set on E. tenella was 0.01 µM (≈ 0.00312 µg/mL). Also, the “number” value in the data set with Eimeria tenella (50 ppm in diet) was 0/5; in the data set on Eimeria tenella (100 ppm in diet), 5/5. Moreover, the “presence or absence” value in the data set on E. acervulina (50 ppm in diet) is given as “P”; in the data set on E. acervulina (100 ppm in diet) it was “A”.

With `CCC(C)(C)C1CCC(C2=C(O)C(=O)c3ccccc3C2=O)CC1` (stereo not drawn) [4'-t-Pentyl (60% trans), 2-hydroxy-3-(4'-t-pentylcyclohexyl)1,4-naphthoquinone], the IC50 in the data set with Plasmodium falciparum (Plasmodium falciparum, 36 h) worked out at 0.06 nM. In addition, the “number” value in the data set on Eimeria tenella (50 ppm in diet) was 4/5; in the data set on Eimeria tenella (100 ppm in diet), 5/5; with Eimeria tenella (200 ppm in diet), 5/5. Also, the “presence or absence” value was “M (95% clearance in comparision with untreated controls)” with E. acervulina (50 ppm in diet), “A” in the data set on E. acervulina (100 ppm in diet) and “A” with E. acervulina (200 ppm in diet).
